In patent US10189870B2, “Crystalline form of oxazolidinone antibiotics and preparation method, composition and use thereof” (Hangzhou Pushai Pharmaceutical Technology Co., Ltd., priority 2014, dated 2019):
In brackets after ≈: the same amount, converted by molar mass. Like-named read-outs stand apart in the source and are kept apart here.

Experiments:
[1] = Isothermal adsorption curve (hygroscopicity); format: physicochemical; settings: for hygroscopicity (in words): isothermal adsorption curve
Experimental: The Isothermal Adsorption Curve data are collected by TA Instruments Q5000 TGA. The instrument control software is Thermal Advantage and the analysis software is Universal Analysis. Generally, take 1 to 10 mg of the sample and place it in a platinum pan, and record weight changes of the sample during the course of the relative humidity changing from 0% to 80% then to 0%. Depending on samples, different adsorption and desorption steps may be used.

[2] = Stability test under high temperature and bright light, HPLC purity; format: physicochemical; settings: for Change in value of maximum individual impurity content: increase
Experimental: High Performance Liquid Chromatogram (HPLC) analysis data are collected from Agilent 1260 and the chemical workstation is B.04. The corresponding parameters are as follows: chromatographic column […] XDB-C18, 5 μm, 4.6×250 mm, H-005#, column temperature 25° C., flow rate 0.3 ml/min, mobile phase 13% acetonitrile and 87% water (0.0025M ammonium bicarbonate), wavelength 254 nm, sample size 10 μL and operation duration 20 min. Form I of TR-701FA prepared in preparation example 1 and Form II of TR-701FA of the present invention were compared in the stability test by being stored for 10 days under conditions of high temperature and bright light. The high temperature was 80° C. and the light was 6,000 lx. HPLC purities and maximum individual impurity contents of the compounds were tested before and after the storage, and the results were shown in Table 3.

[3] = Solubility in water, filtrate content measured by HPLC; format: physicochemical; settings: for solubility at 10 h: water, 25 °C, thermodynamic from solid
Experimental: High Performance Liquid Chromatogram (HPLC) analysis data are collected from Agilent 1260 and the chemical workstation is B.04. The corresponding parameters are as follows: chromatographic column Eclipst XDB-C18, 5 μm, 4.6×250 mm, H-005#, column temperature 25° C., flow rate 0.3 ml/min, mobile phase 13% acetonitrile and 87% water (0.0025M ammonium bicarbonate), wavelength 254 nm, sample size 10 μL and operation duration 20 min.
In 100 mL of water was added 20.0 mg of Form I prepared in preparation example 1 or 20 mg of Form II prepared in example 1, and stirred for 10 hours at 25° C., filtered, the content of the filtrate was directly measured by HPLC.

[4] = Storage stability at 25° C. and 60% RH; format: physicochemical; settings: stored for 6 months at 25° C. and 60% RH
[5] = cited from earlier work
[6] = aqueous solution or acid solution; cited from earlier work
[7] = 0 day vs 10 days at 80° C. and 6,000 lx
[8] = high temperature (80° C.) and lighting (6,000 lx) for 10 days

SMILES | hygroscopicity (in words) [1] | weight change on isothermal adsorption curve ([1]; relative humidity range of 20% to 80% RH) | HPLC purity ([2]; 0 day) | Maximum individual impurity content ([2]; 0 day) | Change in value of maximum individual impurity content [2, 7] | Change in value of HPLC purity ([2]; 0 day vs 10 days at 80° C. and 6,000 lx, positive = decrease) | HPLC purity [2, 8] | Maximum individual impurity content [2, 8] | solubility in water (in words) [3] | solubility at 10 h ([3]; stirred 10 hours at 25° C. (room temperature), filtrate by HPLC, read-out: solubility in water) | purity and crystalline form after storage [4] | solubility at 10 h ([3]; at room temperature, read-out: water solubility) | solubility relative to tedizolid (in words) [5] | stability in solution (in words) [6]
Cn1nnc(-c2ccc(-c3ccc(N4C[C@H](COP(=O)(O)O)OC4=O)cc3F)cn2)n1 [Form I of TR-701FA, (R)-3-(4-(2-(2-methyltetrazol-5-yl)pyridine-5-yl)-3-fluorophenyl)-5-hydroxymethyl oxazolidin-2-onedihydrogenphosphate] | high hygroscopicity | approximately 1.56% | 98.7% | 1.3% | 1.2% | 2.1% | 96.6% | 2.5% | low solubility in water | 0.118 mg/mL (≈ 262 µM) | – | – | – | –
Cn1nnc(-c2ccc(-c3ccc(N4C[C@H](COP(=O)(O)O)OC4=O)cc3F)cn2)n1 [Form II of TR-701FA, (R)-3-(4-(2-(2-methyltetrazol-5-yl)pyridine-5-yl)-3-fluorophenyl)-5-hydroxymethyl oxazolidin-2-onedihydrogenphosphate] | lower hygroscopicity than the known Form I | – | 98.3% | 1.6% | 0.1% | – | 98.4% | 1.7% | – | – | remain unchanged | 0.168 mg/mL (≈ 373 µM) | – | –
Cn1nnc(-c2ccc(-c3ccc(N4C[C@H](COP(=O)(O)O)OC4=O)cc3F)cn2)n1 [TR-701FA, (R)-3-(4-(2-(2-methyltetrazol-5-yl)pyridine-5-yl)-3-fluorophenyl)-5-hydroxymethyl oxazolidin-2-onedihydrogenphosphate] | – | – | – | – | – | – | – | – | – | – | – | – | better solubility than tedizolid | stable in aqueous solution or acid solution
